Measured values published in PubChem BioAssay (NCI).
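Exposure lasted 48 hours, with cells grown in 96-well plates and compounds tested at five concentrations. GI50 is the concentration that inhibits growth by half. The concentration for full growth arrest is given as TGI.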

Columns and labels:
Test in all cases: NCI anticancer screen, dose series, 48 h
IGROV1 ovarian = system: IGROV1 ovarian
SW-620 colon = system: SW-620 colon
OVCAR-8 ovarian = system: OVCAR-8 ovarian
SNB-75 CNS = system: SNB-75 CNS
TK-10 renal = system: TK-10 renal
SF-295 CNS = system: SF-295 CNS
COLO 205 colon = system: COLO 205 colon
SF-268 CNS = system: SF-268 CNS
UACC-62 melanoma = system: UACC-62 melanoma
HCC-2998 colon = system: HCC-2998 colon

| SMILES | TGI (IGROV1 ovarian) [µM] | TGI (SW-620 colon) [µM] | TGI (OVCAR-8 ovarian) [µM] | TGI (SNB-75 CNS) [µM] | TGI (TK-10 renal) [µM] | TGI (SF-295 CNS) [µM] | TGI (COLO 205 colon) [µM] | TGI (SF-268 CNS) [µM] | TGI (UACC-62 melanoma) [µM] | TGI (HCC-2998 colon) [µM] | GI50 (IGROV1 ovarian) [µM] | GI50 (SW-620 colon) [µM] | GI50 (OVCAR-8 ovarian) [µM] | GI50 (SNB-75 CNS) [µM] | GI50 (SF-295 CNS) [µM] | GI50 (COLO 205 colon) [µM] | GI50 (SF-268 CNS) [µM] | GI50 (HCC-2998 colon) [µM] | GI50 (UACC-62 melanoma) [µM] | GI50 (TK-10 renal) [µM] |
| --- | --- | --- | --- | --- | --- | --- | --- | --- | --- | --- | --- | --- | --- | --- | --- | --- | --- | --- | --- | --- |
| N#Cc1c(NC(=S)NC(=O)c2ccccc2)nc2c(c1-c1ccccc1)CCC2 | > 100 | > 100 | > 100 | > 100 | > 100 | > 100 | > 100 | > 100 | > 100 | – | – | – | – | – | – | – | – | – | – | – |
| CSC1=Nc2ccccc2N(C)c2c1c(-c1ccccc1)nn2C | > 100 | > 100 | > 100 | > 100 | > 100 | 33.6 | > 100 | > 100 | > 100 | 56 | – | – | – | – | – | – | – | – | – | – |
| O=C1CC(=O)N(c2ccccc2)N1/C(=C/c1ccccc1)c1ccccc1 | 43.9 | 37.7 | 45.3 | 83.2 | 48.6 | 35.6 | 36.6 | 36.3 | 37.3 | 37.3 | – | – | – | – | – | – | – | – | – | – |
| COC1OC(=O)[C@H]2O[N+]([O-])=C(C)[C@@H]12 (some centres undefined) | > 100 | > 100 | > 100 | > 100 | – | > 100 | > 100 | > 100 | > 100 | > 100 | – | – | – | – | – | – | – | – | – | – |
| CCn1cc(C(c2ccc(Cl)cc2)n2ccnc2)c2cc(Br)ccc21 (centres undefined) | 24.8 | – | 31.6 | 28.5 | 33.7 | 23.8 | 35.1 | 27.4 | 25.2 | 29 | – | – | – | – | – | – | – | – | – | – |
| O=[Se]([O-])c1ccccc1.O=[Se]([O-])c1ccccc1.[OH3+].[OH3+].[Pt+2] | > 42 | 25.2 | 20.2 | 33.8 | – | 16.9 | 18.4 | 18.2 | 55.6 | 55.9 | 9.02 | 5.24 | 3.03 | 6.17 | 3.42 | 6.78 | 6.37 | 16.6 | 13.1 | – |
| Nc1n[nH]c(=O)[nH]1 | > 100 | > 100 | > 100 | > 100 | – | > 100 | > 100 | > 100 | > 100 | > 100 | – | – | – | – | – | – | – | – | – | – |
| Cc1[nH]c(/C=C2\C(=O)Nc3ccc(S(=O)(=O)Cc4c(Cl)cccc4Cl)cc32)c(C)c1C(=O)N1CCC[C@@H]1CN1CCCC1 | 7.98 | 3.29 | 4.37 | – | 3.85 | 2.57 | 22.6 | 4.03 | – | 3.6 | 3.09 | 1.78 | 1.88 | – | 1.19 | 9.15 | 1.6 | 1.95 | – | 1.92 |
| C=CC(=O)Nc1cccc(-c2nc(SC)nc(Nc3ccccc3OC)c2C#N)c1 | – | – | 5.42 | 4.35 | 4.02 | 4.46 | 5.33 | 14.3 | 14.6 | 8.66 | – | – | 2.07 | 1.5 | 1.95 | 1.95 | 2.85 | 2.58 | 2.81 | 1.99 |
| O=C(Nc1ccc(I)cc1C(=O)NCCO)c1cccs1 | > 100 | > 100 | > 100 | – | – | > 100 | > 100 | > 100 | > 100 | > 100 | – | – | – | – | – | – | – | – | – | – |
